Results published in ChEMBL document CHEMBL6153138, “Discovery of Novel Aromatic Urea-Imidazole Salt Derivatives for Cancer Therapy via Targeting ERK1/2” (J Med Chem, 2025).

What was measured:
[1] = system: HCC1937; experiment: Antiproliferative activity against human HCC1937 cells incubated for 48 hrs by CCK-8 method; type: functional, cell-based; settings: HCC1937, 48 h
[2] = system: MCF-10A; experiment: Antiproliferative activity against human MCF-10A cells incubated for 48 hrs by CCK-8 method; type: functional, cell-based
[3] = system: MCF7; experiment: Antiproliferative activity against human MCF7 cells incubated for 48 hrs by CCK-8 method; type: functional, cell-based; settings: MCF7, 48 h
[4] = system: 4T1; experiment: Antiproliferative activity against mouse 4T1 cells incubated for 48 hrs by CCK-8 method; type: functional, cell-based; settings: 4T1, 48 h
[5] = biological target: Mitogen-activated protein kinase 1 (Homo sapiens, UniProt P28482); experiment: Inhibition of ERK2 (unknown origin) incubated for 60 mins by luminescence based ADP-Glo kinase assay
Chain of Mitogen-activated protein kinase 1 (P28482 whole entry): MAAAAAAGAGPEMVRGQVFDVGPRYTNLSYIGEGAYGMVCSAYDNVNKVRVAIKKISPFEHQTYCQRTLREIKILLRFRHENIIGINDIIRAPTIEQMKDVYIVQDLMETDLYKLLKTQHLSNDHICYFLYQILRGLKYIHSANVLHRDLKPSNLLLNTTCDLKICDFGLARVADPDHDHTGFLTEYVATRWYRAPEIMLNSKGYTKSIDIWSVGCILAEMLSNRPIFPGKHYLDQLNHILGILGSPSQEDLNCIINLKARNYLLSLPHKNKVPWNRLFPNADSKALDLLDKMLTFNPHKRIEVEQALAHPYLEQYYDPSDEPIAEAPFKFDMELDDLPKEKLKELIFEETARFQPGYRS

[6] = system: MDA-MB-468; experiment: Antiproliferative activity against human MDA-MB-468 cells incubated for 48 hrs by CCK-8 method; type: functional, cell-based; settings: MDA-MB-468, 48 h

Compound | IC50 [1] | IC50 [3] | IC50 [4] | IC50 [5] | IC50 [6] | IC50 [2]
O=C(Nc1cc(C(F)(F)F)cc(C(F)(F)F)c1)N[C@@H](Cc1ccccc1)Cn1c[n+](Cc2c(Cl)cccc2Cl)c2ccccc21 | 2150 nM | 3150 nM | 5530 nM | 195 nM | 3450 nM | > 10000 nM
N#Cc1ccccc1C[n+]1cn(C[C@H](Cc2ccccc2)NC(=O)Nc2cc(C(F)(F)F)cc(C(F)(F)F)c2)c2ccccc21 | 5600 nM | 3840 nM | 7410 nM | 414 nM | 3640 nM | > 10000 nM
O=C(Nc1cc(C(F)(F)F)cc(C(F)(F)F)c1)N[C@@H](Cc1ccccc1)Cn1c[n+](Cc2ccc(Cl)cc2Cl)c2ccccc21 | 1540 nM | 1700 nM | 4630 nM | 198 nM | 2150 nM | > 10000 nM
O=C(Nc1cc(C(F)(F)F)cc(C(F)(F)F)c1)N[C@@H](Cc1ccccc1)Cn1c[n+](Cc2ccccc2C(F)(F)F)c2ccccc21 | 2960 nM | 1720 nM | 4970 nM | 252 nM | 1880 nM | 7680 nM
C=CC[n+]1cn(C[C@H](Cc2ccccc2)NC(=O)Nc2cc(C(F)(F)F)cc(C(F)(F)F)c2)c2ccccc21 | > 10000 nM | > 10000 nM | > 10000 nM | > 10000 nM | > 10000 nM | > 10000 nM
Cc1ccccc1C[n+]1cn(C[C@H](Cc2ccccc2)NC(=O)Nc2cc(C(F)(F)F)cc(C(F)(F)F)c2)c2ccccc21 | 2750 nM | 2770 nM | 4830 nM | 123 nM | 1910 nM | > 10000 nM
O=C(Nc1cc(C(F)(F)F)cc(C(F)(F)F)c1)N[C@@H](Cc1ccccc1)Cn1c[n+](Cc2cccc(Br)c2)c2ccccc21 | 1690 nM | 1800 nM | 2310 nM | 170 nM | 1580 nM | 8960 nM
O=C(Nc1cc(C(F)(F)F)cc(C(F)(F)F)c1)N[C@@H](Cc1ccccc1)Cn1c[n+](C/C=C/c2ccccc2)c2ccccc21 | 2410 nM | 1530 nM | 5630 nM | 237 nM | 2440 nM | > 10000 nM
N#Cc1ccc(C[n+]2cn(C[C@H](Cc3ccccc3)NC(=O)Nc3cc(C(F)(F)F)cc(C(F)(F)F)c3)c3ccccc32)cc1 | 3820 nM | 5030 nM | > 10000 nM | 392 nM | 2660 nM | > 10000 nM
O=C(Nc1cc(C(F)(F)F)cc(C(F)(F)F)c1)N[C@@H](Cc1ccccc1)Cn1c[n+](Cc2cccc(C(F)(F)F)c2)c2ccccc21 | 3480 nM | 1860 nM | 7030 nM | 185 nM | 2340 nM | > 10000 nM
O=C(Nc1cc(C(F)(F)F)cc(C(F)(F)F)c1)N[C@@H](Cc1ccccc1)Cn1c[n+](Cc2ccc(C(F)(F)F)cc2)c2ccccc21 | 2680 nM | 1610 nM | 5630 nM | 223 nM | 2500 nM | 8120 nM
COc1cccc(C[n+]2cn(C[C@H](Cc3ccccc3)NC(=O)Nc3cc(C(F)(F)F)cc(C(F)(F)F)c3)c3ccccc32)c1 | 3680 nM | 1320 nM | 3540 nM | 247 nM | 1570 nM | > 10000 nM
CC[n+]1cn(C[C@H](Cc2ccccc2)NC(=O)Nc2cc(C(F)(F)F)cc(C(F)(F)F)c2)c2ccccc21 | > 10000 nM | > 10000 nM | > 10000 nM | > 10000 nM | > 10000 nM | > 10000 nM
N#Cc1cccc(C[n+]2cn(C[C@H](Cc3ccccc3)NC(=O)Nc3cc(C(F)(F)F)cc(C(F)(F)F)c3)c3ccccc32)c1 | 5960 nM | 3360 nM | > 10000 nM | 335 nM | 5290 nM | > 10000 nM
O=C(Nc1cc(C(F)(F)F)cc(C(F)(F)F)c1)N[C@@H](Cc1ccccc1)Cn1c[n+](Cc2cc(Cl)ccc2Cl)c2ccccc21 | 2050 nM | 3250 nM | 6780 nM | 193 nM | 2620 nM | > 10000 nM

The next lines start with results.

IC50 [1] | IC50 [3] | IC50 [4] | IC50 [5] | IC50 [6] | Compound | IC50 [2]
1870 nM | 1990 nM | 3880 nM | 235 nM | 2060 nM | O=C(Nc1cc(C(F)(F)F)cc(C(F)(F)F)c1)N[C@@H](Cc1ccccc1)Cn1c[n+](Cc2ccccc2Cl)c2ccccc21 | 9180 nM
3180 nM | 3200 nM | 6890 nM | 280 nM | 1640 nM | O=C(Nc1cc(C(F)(F)F)cc(C(F)(F)F)c1)N[C@@H](Cc1ccccc1)Cn1c[n+](Cc2cccc(OCc3ccccc3)c2)c2ccccc21 | > 10000 nM
4200 nM | 2840 nM | 9670 nM | 294 nM | 3220 nM | O=C(Nc1cc(C(F)(F)F)cc(C(F)(F)F)c1)N[C@@H](Cc1ccccc1)Cn1c[n+](Cc2ccc(F)cc2)c2ccccc21 | > 10000 nM
1710 nM | 2420 nM | 7200 nM | 248 nM | 3020 nM | O=C(Nc1ccc(Cl)cc1)N[C@@H](Cc1ccccc1)Cn1c[n+](Cc2ccc3ccccc3c2)c2ccccc21 | > 10000 nM
3000 nM | 1940 nM | 3510 nM | 236 nM | 1620 nM | O=C(Nc1cc(C(F)(F)F)cc(C(F)(F)F)c1)N[C@@H](Cc1ccccc1)Cn1c[n+](Cc2ccccc2Br)c2ccccc21 | 9250 nM
3620 nM | 2520 nM | 6620 nM | 399 nM | 3690 nM | Cc1ccc(NC(=O)N[C@@H](Cc2ccccc2)Cn2c[n+](Cc3ccc4ccccc4c3)c3ccccc32)cc1 | > 10000 nM
2550 nM | 1590 nM | > 10000 nM | 244 nM | 1290 nM | O=C(Nc1ccc(Cl)c(C(F)(F)F)c1)N[C@@H](Cc1ccccc1)Cn1c[n+](Cc2ccc3ccccc3c2)c2ccccc21 | > 10000 nM
3200 nM | 1980 nM | 8440 nM | 394 nM | 2800 nM | O=C(Nc1ccc(F)cc1)N[C@@H](Cc1ccccc1)Cn1c[n+](Cc2ccc3ccccc3c2)c2ccccc21 | 8750 nM
2980 nM | 1070 nM | 3720 nM | 217 nM | 2080 nM | O=C(Nc1ccc(C(F)(F)F)cc1)N[C@@H](Cc1ccccc1)Cn1c[n+](Cc2ccc3ccccc3c2)c2ccccc21 | > 10000 nM
6560 nM | 2780 nM | 6370 nM | 277 nM | 3050 nM | O=C(Nc1ccc(Br)cc1)N[C@@H](Cc1ccccc1)Cn1c[n+](Cc2ccc3ccccc3c2)c2ccccc21 | > 10000 nM
1490 nM | 2990 nM | 5800 nM | 315 nM | 2240 nM | Cc1ccc(C[n+]2cn(C[C@H](Cc3ccccc3)NC(=O)Nc3cc(C(F)(F)F)cc(C(F)(F)F)c3)c3ccccc32)cc1 | > 10000 nM
3400 nM | 2340 nM | 3680 nM | 166 nM | 2120 nM | O=C(Nc1cc(C(F)(F)F)cc(C(F)(F)F)c1)N[C@@H](Cc1ccccc1)Cn1c[n+](Cc2cccc(Cl)c2)c2ccccc21 | > 10000 nM
1820 nM | 2190 nM | 6770 nM | 338 nM | 2220 nM | O=C(Nc1cc(C(F)(F)F)cc(C(F)(F)F)c1)N[C@@H](Cc1ccccc1)Cn1c[n+](Cc2ccc(Br)cc2)c2ccccc21 | > 10000 nM
3370 nM | 1550 nM | 6770 nM | 215 nM | 2450 nM | O=C(Nc1ccc(Cl)c(Cl)c1)N[C@@H](Cc1ccccc1)Cn1c[n+](Cc2ccc3ccccc3c2)c2ccccc21 | 9720 nM
3720 nM | 1700 nM | 6780 nM | 275 nM | 2360 nM | Cc1cccc(C[n+]2cn(C[C@H](Cc3ccccc3)NC(=O)Nc3cc(C(F)(F)F)cc(C(F)(F)F)c3)c3ccccc32)c1 | > 10000 nM
5980 nM | 2700 nM | 7820 nM | 327 nM | 3250 nM | Cc1cc(C)cc(NC(=O)N[C@@H](Cc2ccccc2)Cn2c[n+](Cc3ccc4ccccc4c3)c3ccccc32)c1 | > 10000 nM
1770 nM | 2090 nM | 3130 nM | 217 nM | 1820 nM | O=C(Nc1cc(C(F)(F)F)cc(C(F)(F)F)c1)N[C@@H](Cc1ccccc1)Cn1c[n+](Cc2ccccc2F)c2ccccc21 | 8380 nM
4530 nM | 1910 nM | 4590 nM | 319 nM | 1810 nM | O=C(Nc1cc(C(F)(F)F)cc(C(F)(F)F)c1)N[C@@H](Cc1ccccc1)Cn1c[n+](Cc2ccc(Cl)cc2)c2ccccc21 | 9780 nM
1130 nM | 1790 nM | 5290 nM | 370 nM | 1810 nM | O=C(Nc1cc(C(F)(F)F)cc(C(F)(F)F)c1)N[C@@H](Cc1ccccc1)Cn1c[n+](Cc2ccc3cccnc3c2)c2ccccc21 | 8220 nM
3170 nM | 2430 nM | 5330 nM | 133 nM | 1710 nM | O=C(Nc1cc(C(F)(F)F)cc(C(F)(F)F)c1)N[C@@H](Cc1ccccc1)Cn1c[n+](Cc2cccc(F)c2)c2ccccc21 | 9320 nM
